# From US20120208776A1 (priority 2002, published 2012)
# Like-named read-outs stand apart in the source and are kept apart here. Marks after values point to notes of the source that are not given here.
# Assays:
# MDA-MB-453 cells = assay: Combination with chemotherapy agents, cell count, combination index (CI); assay type: cell-based, human
# [1] = test system: cyclin D1 and p21 mRNA in MDA-MB-453 cells; assay: RT-PCR of mRNA; assay type: cell-based, human
# Protocol: (§1) MDA-MB-453 cells were treated with DMSO or actein for 3, 10, or 24 h. RNA was isolated and analyzed by RT-PCR, using primers for cyclin D1 and actin (control). The staining intensities of the visualized blots were quantified using NIH image software. The relative band intensities were determined by comparing treated samples with untreated controls. These values were then normalized (fold), using actin as an internal control.
# as §1, with “using β-actin” for “using actin”
# [2] = test system: cyclin D1 and p21 mRNA in MDA-MB-453 cells; assay: RT-PCR of mRNA; assay type: cell-based, human; remark: listed apart in the source
# [3] = Lipid analysis of rat liver; assay type: in vivo, Sprague-Dawley rats; conditions: actein 35.7 mg/kg; 24 hours
# Protocol: (§2) Lipid analysis: Hepatic lipids were extracted by homogenization of the liver followed by addition of choloroform:methanol (2:1). After vortex and centrifugation for 10 min, the organic phase was collected and dried under nitrogen. The dried lipids were dissolved in 1% Triton X-100 in water and sonicated. Extracted hepatic lipids and plasma lipids were measured by cholesterol and triglyceride enzymatic assay kits from Infinity (Louisville, Colo.) according to the manufacturer's instruction. Free fatty acids were measured by Enzymatic assay using NEFA C kit from Wako Chemicals (Richmond, Va.). Tissue lipids were normalized by protein concentration.
# as §2, with “Hepatic” for “Lipid analysis: Hepatic”, “liver from the 24 h group,” for “liver”, “vortexing” for “vortex”, “Colo.),” for “Colo.)”, “instructions.” for “instruction.”
# MCF7 cells = assay: Cell-cycle analysis by DNA flow cytometry; assay type: cell-based, human
# Protocol: Synchrony: To synchronize the cells, 3×10^5 cells were plated onto 10 cm dishes and grown for 2 days in DMEM supplemented with 10% fetal bovine serum.
# After incubation for 1-3 days, the supernatant was collected, and the cells were trypsinized, collected, and washed with phosphate buffered saline (PBS) containing 5% FBS. Cell pellets were re-suspended in 1 ml of PBS plus 5% FBS. Thereafter, 5 ml of 70% ethanol were added drop-wise, while vortexing the tube, and the mixture was stored at 4° C. Cells were centrifuged, washed with PBS plus 5% FBS, and re-suspended in 400 μl of propidium iodide (0.1 mg/ml) (Sigma Chemical Co.). 400 μl (2 mg/ml) of RNase (Sigma Chemical Co.) were added, and the cells were incubated in the dark at room temperature for 30 min.
# [4] = test system: rat liver gene expression
# Na^+-K^+-ATPase = assay: Enzymatic assay of adenosine 5′-triphosphatase; assay type: biochemical; conditions: 20 μM
# Protocol: Enzymatic assay of adenosine 5′-triphosphatase. The enzymatic assay of ATPase (adenosine 5′-triphosphatase, EC 3.6.1.3) followed the Sigma Prod. […] [P] was determined by the Taussky-Shorr method.
# [5] = rat liver, actein 35.7 mg/kg, 6 hours, vs control
# [6] = rat liver, actein 35.7 mg/kg, 24 hours, vs control
structure (smiles),measurement,setting,value
CC(=O)O[C@@H]1C[C@@]23C[C@@]24CC[C@H](O[C@@H]2OC[C@@H](O)[C@H](O)[C@H]2O)C(C)(C)[C@@H]4CC[C@H]3[C@]2(C)C[C@@H]3O[C@]4(C[C@@H](C)[C@@H]3[C@@]12C)O[C@H](O)[C@@]1(C)O[C@@H]41 [actein],"number of viable cells, average",MDA-MB-453 cells; actein 1,148202.7
same,"number of viable cells, average",MDA-MB-453 cells; actein 10,106747.3
same,"number of viable cells, average","MDA-MB-453 cells; actein .1 (μg/ml), 96 h",174798.3
same,cyclin D1 mRNA (RT-PCR),"[1]; 3 h, 20 μg/ml",0.88 fold
same,cyclin D1 mRNA (RT-PCR),"[1]; 3 h, 40 μg/ml",1 fold
same,cyclin D1 mRNA (RT-PCR),"[1]; 10 h, 20 μg/ml",1.18 fold
same,cyclin D1 mRNA (RT-PCR),"[1]; 10 h, 40 μg/ml",1.02 fold
same,cyclin D1 mRNA (RT-PCR),"[1]; 24 h, 20 μg/ml",0.98 fold
same,cyclin D1 mRNA (RT-PCR),"[1]; 24 h, 40 μg/ml",0.56 fold
same,p21 mRNA (RT-PCR),"[2]; 3 h, 20 μg/ml",0.92 fold
same,p21 mRNA (RT-PCR),"[2]; 3 h, 40 μg/ml",1.03 fold
same,p21 mRNA (RT-PCR),"[2]; 10 h, 20 μg/ml",1.06 fold
same,p21 mRNA (RT-PCR),"[2]; 10 h, 40 μg/ml",1.19 fold
same,p21 mRNA (RT-PCR),"[2]; 24 h, 20 μg/ml",0.92 fold
same,p21 mRNA (RT-PCR),"[2]; 24 h, 40 μg/ml",1.46 fold
same,cholesterol level in liver vs controls,[3],0.6 fold
same,free fatty acid level in liver vs controls,[3],0.6 fold
same,triglyceride content of liver vs controls,[3],no change
same,cells in G1,"MCF7 cells; 10 μg/ml, 24 h",75%
same,cells in G1,"MCF7 cells; 10 μg/ml, 48 h",77%
same,cells in G1,"MCF7 cells; 20 μg/ml, 24 h",77%
same,apoptosis (sub G1 peak),"MCF7 cells; 20 μg/ml, 48 h",approximately 1.4%
same,cells in G1,"MCF7 cells; 20 μg/ml, 48 h",87%
same,apoptosis (sub G1 peak),"MCF7 cells; 20 μg/ml, 72 h",3.6%
same,cells in G1,"MCF7 cells; 30 μg/ml, 48 h",82%
same,cells in G2/M,"MCF7 cells; 30 μg/ml, 48 h",12%
same,cells in G1,"MCF7 cells; 40 μg/ml, 24 h",74%
same,cells in G1,"MCF7 cells; 40 μg/ml, 48 h",79%
same,cells in G1,"MCF7 cells; 60 μg/ml, 48 h",77%
same,cells in G2/M,"MCF7 cells; 60 μg/ml, 48 h",18%
same,"ATP synthase expression, fold-change (log)","[4]; actein 35.7 mg/kg, 6 hours",−0.05
same,number of genes with significant change (p<0.05) in transcription level,"[4]; actein 35.7 mg/kg, 6 hours",297
same,"erythropoietin expression, fold-change (log)","[4]; actein 35.7 mg/kg, 6 hours, rat liver",−0.22
same,"C4BP expression, fold-change (log)","[4]; actein 35.7 mg/kg, 24 hours",0.17
same,"CXCL1 expression, fold-change (log)","[4]; actein 35.7 mg/kg, 24 hours",0.44
same,"FDPS expression, fold-change (log)","[4]; actein 35.7 mg/kg, 24 hours",0.34
same,"HMGCS expression, fold-change (log)","[4]; actein 35.7 mg/kg, 24 hours",0.36
same,"IPP expression, fold-change (log)","[4]; actein 35.7 mg/kg, 24 hours",0.80
same,"S100A9 expression, fold-change (log)","[4]; actein 35.7 mg/kg, 24 hours",0.79
same,"SCD1 expression, fold-change (log)","[4]; actein 35.7 mg/kg, 24 hours",−1.28
same,number of genes with significant change (p<0.05) in transcription level,"[4]; actein 35.7 mg/kg, 24 hours",1335
same,"PPS, Hepatic inflammatory infiltrate, centrilobular signature","[4]; female, Sprague-Dawley, rat, in vivo, 6 h",0.58
same,"PPS, Hepatic inflammatory infiltrate, early gene expression signature","[4]; female, Sprague-Dawley, rat, in vivo, 24 h",0.56
same,Fold-change (log) ATP5I (1387019_at),[4]; [5],−0.05*
same,Fold-change (log) EPO (1387308_at),[4]; [5],−0.22^†
same,Fold-change (log) ACOX1 (1367680_at),[4]; [6],−0.17*
same,"Fold-change (log) C4BP, Complement component 4 binding protein, alpha (1369764_at)",[4]; [6],0.09*
same,"Fold-change (log) C4BP, Complement component 4 binding protein, beta (1368695_at)",[4]; [6],0.17*
same,Fold-change (log) C5 (1383425_at),[4]; [6],0.18*
same,Fold-change (log) CD44 (1387952_a_at),[4]; [6],0.08*
same,Fold-change (log) CXCL1 (1387316_at),[4]; [6],0.44*
same,Fold-change (log) FDPS (1367667_at),[4]; [6],0.34*
same,Fold-change (log) HMGCS1 (1367932_at),[4]; [6],0.36^†
same,Fold-change (log) IPP (1388872_at),[4]; [6],0.80*
same,Fold-change (log) MG3PDH (1387670_at),[4]; [6],−0.38*
same,Fold-change (log) S100A9 (1387125_at),[4]; [6],0.79*
same,Fold-change (log) SAP (1367804_at),[4]; [6],−0.04*
same,Fold-change (log) SCD1 (1370355_at),[4]; [6],−1.28*
C[C@H]1O[C@@H](O[C@H]2[C@@H](O)C[C@H](O[C@H]3[C@@H](O)C[C@H](O[C@H]4CC[C@@]5(C)[C@H](CC[C@@H]6[C@@H]5CC[C@]5(C)[C@@H](C7=CC(=O)OC7)CC[C@]65O)C4)O[C@@H]3C)O[C@@H]2C)C[C@H](O)[C@@H]1O [digitoxin],percent inhibition of in vitro Na^+-K^+-ATPase activity,Na^+-K^+-ATPase,35.2%
